Measured values published in patent US9308270B2, “Pharmaceutical composition on the basis of nanomicelles containing epigallocatechin gallate and a method of administration thereof to treat atopic dermatitis, Crohn's disease, adenomyosis, and hyperplastic diseases of the prostate gland” (NORDIC LABS LIMITED, priority 2011, dated 2016).

What was measured:
[1] = Dependence of EGCG concentration in rat plasma on dose; type: in vivo; details: different doses, FIG. 2
[2] = tested on: rats; test: Toxicity observed in the rat pharmacokinetic study; type: in vivo; details: peroral, maximum dose 2,500 mg/kg (G-1), without formulation
Protocol: At fixed time intervals (10 and 30 minutes, 1, 1.5, 2, 3, 8, and 24 hours), blood samples were drawn from the animals and, following centrifuging, plasma was drawn from the samples for analysis, refrigerated, and kept at −80° C. until it was needed for studies.

[3] = cited from earlier work
[4] = Pharmacokinetic study of EGCG in rat plasma after peroral administration; type: in vivo; details: for AUC0-24 hr / Cmax: rat plasma
Protocol: Experiments were conducted on laboratory rats of Sprague-Dawley breed weighing between 250 g and 350 g. All studies on animals were conducted in accordance with “Guidelines for Care and Use of Experimental Animals,” […] At fixed time intervals (10 and 30 minutes, 1, 1.5, 2, 3, 8, and 24 hours), blood samples were drawn from the animals and, following centrifuging, plasma was drawn from the samples for analysis, refrigerated, and kept at −80° C. until it was needed for studies. For analytical studies to be conducted, the plasma samples were unfrozen, centrifuged, and divided into aliquots of 0.1 ml each. The samples were extracted three times in 2 ml of ethyl acetate for 5 minutes at constant shaking. Following extraction, the samples were centrifuged at 1,000 r.p.m. for 10 minutes. The supernatant was separated and placed in a glass tube.

For epigallocatechin-3-gallate [EGCG], the “dependence of EGCG concentration in rat plasma on dose” value [1] is listed as “nonlinear pattern and reached a plateau at the 500 mg/kg dose”, the toxicity [2] is listed as “toxic to the animals” and the “EGCG concentration in human plasma” value ([3]; maximum possible tea drinking during the day) is listed as 326 ng/mL. The “maximum concentration of EGCG in plasma” value ([3]; patients taking preparations containing green tea catechins) was no more than 1 μm, the AUC0-24 hr ([4]; 500 mg/kg) was 49.23 ± 4.95 µg·h/mL and the Cmax ([4]; 500 mg/kg) was 10650 ± 1140 ng/mL. The AUC0-24 hr ([4]; 2.5 g/kg (G-1)) was 179.2 ± 54.33 µg·h/mL, the Cmax ([4]; 2.5 g/kg (G-1)) was 58600 ± 22400 ng/mL and the “EGCG concentration level in plasma” value ([4]; rat, 100 mg/kg (G-5)) was “below LOQ”.
